Laboratory results: ChEMBL document CHEMBL5029181, “Synthesis and evaluation of potent novel inhibitors of human sulfide:quinone oxidoreductase” (Bioorg Med Chem Lett, 2021)
Values after ≈ are worked out from the molar mass of the structure shown.

Legend:
[1] = target: Sulfide:quinone oxidoreductase, mitochondrial (Homo sapiens, UniProt Q9Y6N5); assay: Inhibition of human SQOR
[2] = AUClast in mouse at 10 mg/kg, ip; format: ADME, organism-based; design: time 0 - last, route intraperitoneal, dose 10 mg/kg; conditions: in vivo
[3] = Permeability of the compound from basolateral to apical side in human Caco-2 cells; format: ADME, cell-based; conditions: read-out: permeability
[4] = Aqueous solubility of the compound at pH 7; conditions: buffer
[5] = Protein binding in mouse plasma; format: ADME, cell-free; conditions: read-out: PPB (converted)
[6] = Half life in mouse at 10 mg/kg, ip; format: ADME, organism-based; conditions: in vivo
[7] = Permeability of the compound from apical to basolateral side in human Caco-2 cells; format: ADME, cell-based; conditions: read-out: permeability

Sequence of Sulfide:quinone oxidoreductase, mitochondrial (Q9Y6N5 whole entry): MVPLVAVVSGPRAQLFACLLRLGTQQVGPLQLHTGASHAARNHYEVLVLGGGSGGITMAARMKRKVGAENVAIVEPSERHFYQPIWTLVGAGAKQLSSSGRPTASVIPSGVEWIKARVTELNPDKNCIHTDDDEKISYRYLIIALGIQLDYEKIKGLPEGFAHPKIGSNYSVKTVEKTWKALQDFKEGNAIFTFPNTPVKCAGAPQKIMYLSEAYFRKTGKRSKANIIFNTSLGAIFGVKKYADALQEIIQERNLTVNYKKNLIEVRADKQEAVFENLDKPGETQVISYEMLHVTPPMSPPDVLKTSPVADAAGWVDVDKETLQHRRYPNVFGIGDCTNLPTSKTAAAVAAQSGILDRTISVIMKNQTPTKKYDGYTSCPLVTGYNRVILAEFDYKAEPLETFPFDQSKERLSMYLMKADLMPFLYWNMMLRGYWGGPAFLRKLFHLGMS

| SMILES | IC50 [1] | also measured |
| --- | --- | --- |
| COc1nc(-c2ccccc2)cc(-c2ccc(Cl)cc2Cl)c1C#N | > 100000 nM |  |
| COc1nc(-c2ccccc2)cc(-c2ccc(F)cc2)c1C#N | 25 nM |  |
| C=CCOc1nc(-c2ccccn2)cc(-c2ccc(F)cc2)c1C#N | 5.5 nM |  |
| COc1ccc(-c2cc(-c3ccc(F)cc3)c(C#N)c(OC)n2)cc1 | 1360 nM |  |
| COc1nc(-c2cccnc2)cc(-c2ccc(F)cc2)c1C#N | 213 nM |  |
| CCSc1nc(-c2ccccc2)cc(-c2ccccc2)c1C#N | 132 nM |  |
| COc1ccccc1-c1cc(-c2ccc(F)cc2)c(C#N)c(OC)n1 | 75 nM |  |
| COc1nc(-c2ccccn2)cc(-c2ccc(F)cc2)c1C#N | 14 nM |  |
| COc1cccc(-c2cc(-c3ccc(F)cc3)c(C#N)c(OC)n2)c1 | 108 nM |  |
| COc1nc(-c2ccccc2)cc(-c2ccncc2)c1C#N | 541 nM |  |
| COc1nc(-c2ncccc2C)cc(-c2ccc(F)cc2)c1C#N | 8.7 nM | AUC(0-t) [2]: 42 ng·h/mL; Papp B→A [3]: 0.769 ×10⁻⁶ cm/s; solubility [4]: 0.013 µM (≈ 4.15 ng/mL); fraction unbound [5]: 0.0036; half-life [6]: 5.96 h; Papp A→B [7]: 0.455 ×10⁻⁶ cm/s |
| N#Cc1c(-c2ccccc2)cc(-c2ccccc2)nc1OCc1ccccc1 | 100 nM |  |
| Cc1cccnc1-c1cc(-c2ccc(F)cc2)c(C#N)c(OCc2cccnc2)n1 | 36 nM |  |
| COc1nc2c(c(-c3ccccc3)c1C#N)Cc1ccccc1-2 | 2.1 nM |  |
| COc1nc(-c2ccccn2)cc(-c2ccc(F)cc2)c1C(N)=O | 16200 nM |  |
| COc1nc(-c2ccncc2)cc(-c2ccc(F)cc2)c1C#N | 17400 nM |  |
| COCCOc1nc(-c2ccccc2)cc(-c2ccc(F)cc2)c1C#N | 123 nM |  |
| COc1nc(-c2ccccn2)cc(C(C)(C)C)c1C#N | 850 nM |  |
| COc1nc(C(C)(C)C)cc(-c2ccc(F)cc2)c1C#N | 153 nM |  |
| COc1nc(-c2ccccc2)cc(-c2ccccc2)c1C#N | 53 nM |  |
| COc1nc(-c2ncccc2C)cc(-c2ccc(N)cc2)c1C#N |  | AUC(0-t) [2]: 1080 ng·h/mL; fraction unbound [5]: 0.022; half-life [6]: 1.13 h |
| COc1nc(-c2ccccc2)cc(-c2ccc(Cl)cc2)c1C#N | 252 nM |  |
